Key:
[1] = system: pyramidal neurons of Ptpn11^D61G/+ mice; test: Whole-cell voltage clamp mEPSC recordings in Ptpn11^D61G/+ mice; format: cell-based; conditions: SL327 1 μM
Procedure: FIG. 4 are graphs showing PTPN11^D61G overexpression enhances excitatory synaptic function through increased Ras-Erk signaling. Panel a) AMPA receptor-mediated currents were measured at the peak of the currents at −65 mV, and NMDA currents were measured 50 ms after onset at +40 mV. The average of 15 traces is shown. Scale, 100 pA and 40 ms. Panel b) Group data showing the increased AMPA:NMDA current ratio in AAV-PTPN11^D61G mice (1.51±0.11, n=10 cells from 5 mice) compared with AAV-GFP mice (0.96±0.05, n=10 cells from 5 mice, t-test, ***P<0.001). […] Two-way ANOVA, interaction between viral treatment and drug, F(1, 31)=10.53, **P<0.01. […] Panel c) Paired-pulse facilitation ratio is unaffected by PTPN11^D61G. There was no significant difference at 25 ms or 50 ms intervals between two groups (AAV-PTPN11^D61G, n=12 cells from 5 mice; AAV-GFP, n=11 cells from 5 mice). Repeated-measures ANOVA, F(1, 21)=0.010, P=0.921. […]
(§1) Whole-cell voltage clamp recordings were done with an Axopatch 200B amplifier (Axon Instrument) as previously described^29, 30. […] For mEPSC recordings, voltage clamp recordings were performed at −60 mV in the presence of 100 μM picrotoxin and 1 μM TTX. mIPSCs were measured at +10 mV in the presence of 1 mM kynurenic acid and 1 μM TTX. […]

Pyramidal neurons in CA1 = test: Whole-cell voltage clamp recordings (AMPA:NMDA ratio, mEPSC) in AAV-PTPN11^D61G-infected hippocampi; format: cell-based, mice; conditions: SL327 1 μM; for AMPA:NMDA current ratio: 1 hr
Procedure: FIG. 4 are graphs showing PTPN11^D61G overexpression enhances excitatory synaptic function through increased Ras-Erk signaling. Panel a) AMPA receptor-mediated currents were measured at the peak of the currents at −65 mV, and NMDA currents were measured 50 ms after onset at +40 mV. The average of 15 traces is shown. Scale, 100 pA and 40 ms. Panel b) Group data showing the increased AMPA:NMDA current ratio in AAV-PTPN11^D61G mice (1.51±0.11, n=10 cells from 5 mice) compared with AAV-GFP mice (0.96±0.05, n=10 cells from 5 mice, t-test, ***P<0.001). […] Two-way ANOVA, interaction between viral treatment and drug, F(1, 31)=10.53, **P<0.01. […] Panel c) Paired-pulse facilitation ratio is unaffected by PTPN11^D61G. There was no significant difference at 25 ms or 50 ms intervals between two groups (AAV-PTPN11^D61G, n=12 cells from 5 mice; AAV-GFP, n=11 cells from 5 mice). Repeated-measures ANOVA, F(1, 21)=0.010, P=0.921. Panel d) PTPN11^D61G overexpression increases excitatory synaptic function. mEPSC frequency was increased in AAV-PTPN11^D61G-infected mice compared with AAV-GFP mice, and was reversed by SL327 (1 μM) treatment without affecting on the AAV-GFP group. mEPSC frequency: GFP/Veh, 1.50±0.53, n=9; PTPN11^D61G/Veh, 4.64±0.94, n=9; GFP/SL327, 1.28±0.19, n=7; PTPN11^D61G/SL327, 2.02±0.32, n=9; Two-way ANOVA with viral treatment as between-subjects factor, F(1, 30)=10.31, **P<0.01. […] Two-way ANOVA with viral treatment as between-subjects factor, F(1, 30)=0.470, P=0.498. Scale, 20 pA and 200 ms. Panel e) Excitatory synaptic function is increased in Ptpn11^D61G/+ mice and reversed by SL327 treatment. mEPSC frequency was increased in Ptpn11^D61G/+ mice compared with WT littermates, and was reversed by SL327 (1 μM) treatment. mEPSC frequency: WT/Veh, 2.68±0.55, n=9; Ptpn11^D61G/+/Veh, 5.71±0.56, n=10; WT/SL327, 2.46±0.63, n=9; Ptpn11^D61G/+/SL327, 2.87±1.02, n=9; Two-way ANOVA with genotype as between-subjects factor, F(1, 33)=5.914, *P<0.05. […] Two-way ANOVA with genotype as between-subjects factor, F(1, 33)=0.418, P=0.839. Scale, 20 pA and 200 ms.
We examined the electrophysiological mechanism underlying the LTP impairment in AAV-PTPN11^D61G-infected mice. Increases in Ras signaling are known to facilitate AMPA receptor trafficking to the surface membrane^20. For example, expression of constitutively active Ras enhances AMPA receptor-mediated currents in hippocampal neurons and impairs LTP^20. […]
as §1

In the case of `N#C/C(=C(/N)Sc1ccc(N)cc1)c1ccccc1C(F)(F)F` [SL327], the mEPSC frequency ([1]; Ptpn11^D61G/+ mice) is reported as 2.87±1.02, the mEPSC frequency ([1]; WT littermates) is reported as 2.46±0.63 and the mEPSC frequency (Pyramidal neurons in CA1; AAV-GFP mice) is reported as 1.28±0.19. The mEPSC frequency (Pyramidal neurons in CA1; AAV-PTPN11^D61G-infected mice) was 2.02±0.32, the “AMPA:NMDA current ratio” value (Pyramidal neurons in CA1; GFP group) was 1.08±0.07 and the “AMPA:NMDA current ratio” value (Pyramidal neurons in CA1; PTPN11^D61G group) was 1.07±0.11.
